Reference: patent US20250152591A1, “TREATMENT OF HEMATOLOGICAL MALIGNANCIES WITH MENIN INHIBITORS AND P-GLYCOPROTEIN INHIBITORS” (Kura Oncology, Inc., priority 2022, published 2025)
Where two headings read alike, the source gives them in different places.

Columns and labels:
P-gp = P-gp (Homo sapiens, UniProt P08183); assay: in vitro; settings: MDCK-MDR1, pH 7.4
Description: MDCK epithelial cells stably transfected with the human MDR1 gene (the gene encoding for the efflux protein P-gp) were seeded on a Multiscreen™ plate (Millipore, MA, USA) and formed a confluent monolayer over 4 days prior to the experiment. To verify the MDR1-MDCK cell monolayers were properly formed, aliquots of the cell buffers were analyzed by fluorescence to determine the transport of the impermeable dye Lucifer Yellow. Any deviations from control values are reported.
MDR1-MDCK cells were incubated with these buffers for 2 h, and the receiver side buffer was removed for analysis by LC-MS/MS.
The rate of passage of the test compounds through this cell monolayer barrier from apical to basolateral (A→B) in this bi-directional transport assay was used to determine the apparent permeability coefficient (Papp). Receiver, donor, and dosing solution concentrations were quantified using a calibration curve prepared in transport buffer solution (pH 7.4). Papp is calculated as
where dQ/dt is rate of permeation, C0 is initial concentration of test agent, and A is the area of monolayer (0.11 cm^2). The basolateral to apical (B→A) to apical to basolateral (A→B) apparent permeability coefficient ratio
When RE>2 for a tested compound, the tested compound is a potential substrate for P-gp.
Rantinidine, talinolol, warfarin, and loperamide (±2 μM elacridar) were tested as reference compounds and each was tested at a concentration of 10 μM.

[1] = tested on: MV4;11 parental cell line; assay: CellTiter-Glo cell viability assay, MV4;11 parental; type: cell-based; settings: Homo sapiens, MV4-11, 144 h; Compound I only, 0 to 1000 nM, 6 days, Table 3
Description: (§1) The influence of efflux pumps on the antitumor activity of the test compounds at steady state (more clinically relevant) were evaluated using P-gp-transfected AML cells (MV4;11 cells) in 6-day viability assays.
(§2) A P-gp-expressing KMT2A(MLL)-rearranged cell line model was developed by lentiviral transduction of the MV4;11 parental cell line and then selection for either Luciferase ORF (MV4;11-Control) or P-gp ORF (MV4;11-PGP).
The MV4;11 parental, MV4;11-Control, and MV4;11-PGP cells were seeded on a 96-well plate and the cell lines were treated with Compound I at doses ranging from 0 to 1000 nM for 6 days. Cell viability was measured by CellTiter-Glo® Luminescent Cell Viability Assay (CTG assay, Promega Corp.) and % Viability was quantified by normalizing to the luminescence values of DMSO-only treated cells. The dose-response curves and IC50's were calculated using GraphPad Prism 9.4.1.

MV4;11-PGP cell line = assay: CellTiter-Glo cell viability assay, MV4;11-PGP; type: cell-based; set-up: unit of the concentration uncertain
Description: as §1, §2
[…] Cell viability was measured by CellTiter-Glo® Luminescent Cell Viability Assay (CTG assay, Promega Corp.) and % Viability was quantified by normalizing to the luminescence values of DMSO-only treated cells. The dose-response curves and IC50's were calculated using GraphPad Prism 9.4.1.
The measured luminescence in the live cells of the MV4;11-Control and MV4;11-PGP cells that were treated with Compound I only (+DMSO), Compound I+posaconazole […], and valspodar (1 mM) are shown in FIGS. 5A and 5B.
In a second set of experiments, MV4;11-Control and MV4;11-PGP cell lines were treated as described above with five menin inhibitors, including Compound I, SNDX-5613, Compound A, Compound B, and Compound C, at concentrations ranging from 0 to 1000 nM. All tested compounds dropped in potency due to the P-gp expression as shown in FIGS. 6A-6J and in Tables 5 and 6 (indicated by increased IC50 values between “MV4;11-Control (Compound+DMSO)” and “MV4;11-PGP (Compound+DMSO)” entries).

MOLM13-Control cell line = assay: Cell viability assay, MOLM13-Control; type: cell-based; set-up: unit of the concentration uncertain; settings: 168 h, 7 days
Description: (§3) The effects described above were investigated in an AML cell line, MOLM-13, which carries a KA4T2A (MLL)-rearrangement mutation. The P-gp expressing MOLM-13 cell line (MOLM13-PGP) and the Luciferase expressing MOLM-13 cell line (MOLM13-Control) were established by lentivirally transducing P-gp ORF or Luciferase ORF. Cells were plated and treated with test compound for 7 days.

MOLM13-PGP cell line = assay: Cell viability assay, MOLM13-PGP; type: cell-based; set-up: unit of the concentration uncertain; settings: 168 h, 7 days
Description: as §3

[2] = tested on: OCI-AML3-Control cell line; assay: Cell viability assay, OCI-AML3-Control; type: cell-based; set-up: unit of the concentration uncertain; settings: 168 h, 7 days
Description: (§4) A third set of experiments was conducted in the cell line OCI-AML3, which carries the W288Cfs*12 mutation in NPM protein. The P-gp expressing OCI-AML3 cell line (OCI-AML3-PGP) and the Luciferase expressing OC-AML3 cell line (OCI-AML3-Control) were established by lentivirally transducing P-gp ORF or Luciferase ORF. Cells were treated with Compound I or SNDX-5613 for 7 days to assess the IC50 values.

OCI-AML3-PGP cell line = assay: Cell viability assay, OCI-AML3-PGP; type: cell-based; set-up: unit of the concentration uncertain; settings: 168 h, 7 days
Description: as §4

P-gp, sequence (P08183 whole entry): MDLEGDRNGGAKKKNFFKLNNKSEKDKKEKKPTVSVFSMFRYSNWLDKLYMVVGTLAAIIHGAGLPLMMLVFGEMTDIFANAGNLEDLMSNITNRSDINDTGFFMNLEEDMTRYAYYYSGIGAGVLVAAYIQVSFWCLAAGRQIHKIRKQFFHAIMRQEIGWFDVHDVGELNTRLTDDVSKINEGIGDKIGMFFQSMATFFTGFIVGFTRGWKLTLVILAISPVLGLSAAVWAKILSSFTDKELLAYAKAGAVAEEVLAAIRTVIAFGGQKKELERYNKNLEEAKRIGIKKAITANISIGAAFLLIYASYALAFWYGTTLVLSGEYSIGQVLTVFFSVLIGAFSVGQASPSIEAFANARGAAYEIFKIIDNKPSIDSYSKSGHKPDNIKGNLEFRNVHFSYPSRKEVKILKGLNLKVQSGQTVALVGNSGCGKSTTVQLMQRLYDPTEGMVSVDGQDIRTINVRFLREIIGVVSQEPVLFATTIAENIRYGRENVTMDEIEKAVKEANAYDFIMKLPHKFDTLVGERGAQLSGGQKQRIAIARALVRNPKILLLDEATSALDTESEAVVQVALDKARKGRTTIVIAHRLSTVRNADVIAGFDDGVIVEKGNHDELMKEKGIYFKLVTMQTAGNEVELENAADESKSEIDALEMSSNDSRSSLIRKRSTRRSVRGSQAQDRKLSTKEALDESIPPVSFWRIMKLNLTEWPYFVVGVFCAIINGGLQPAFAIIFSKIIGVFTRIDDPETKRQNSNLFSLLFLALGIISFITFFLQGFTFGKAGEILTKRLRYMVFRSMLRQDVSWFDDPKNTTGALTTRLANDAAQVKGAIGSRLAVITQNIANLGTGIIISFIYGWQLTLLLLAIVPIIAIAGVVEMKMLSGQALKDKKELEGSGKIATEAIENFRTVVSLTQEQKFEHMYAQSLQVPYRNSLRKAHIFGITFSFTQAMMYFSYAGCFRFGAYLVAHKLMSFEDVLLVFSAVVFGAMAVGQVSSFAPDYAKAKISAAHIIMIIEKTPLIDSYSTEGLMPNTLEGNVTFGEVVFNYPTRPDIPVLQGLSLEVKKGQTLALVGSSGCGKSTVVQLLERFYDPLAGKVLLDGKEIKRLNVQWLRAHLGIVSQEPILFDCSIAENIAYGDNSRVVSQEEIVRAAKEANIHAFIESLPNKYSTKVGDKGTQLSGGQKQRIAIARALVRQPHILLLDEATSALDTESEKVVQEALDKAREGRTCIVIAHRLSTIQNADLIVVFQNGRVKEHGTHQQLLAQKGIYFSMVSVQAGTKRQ

Compound `CNc1nc(NC2CCN(Cc3ccc4c(cc(C#N)n4C[C@H](C)N4CCN(S(C)(=O)=O)CC4)c3C)CC2)c2cc(CC(F)(F)F)sc2n1` [Compound I] has a Papp A→B at 2 h (P-gp) of 0.308 ×10⁻⁶ cm/s, a Papp B→A at 2 h (P-gp) of 1.84 ×10⁻⁶ cm/s and an IC50 [1] of 8.5 nM. For the same compound, the IC50 (MV4;11-PGP cell line; 120 h, MV4;11-PGP, 5 days, Table 4, read-out: IC50 (Compound I + DMSO)) was 33 nM, the IC50 (MV4;11-PGP cell line; 120 h, MV4;11-PGP, posaconazole (1.5 μM), 5 days, Table 4, read-out: IC50 (Compound I + Posaconazole)) was 7.1 nM and the IC50 (MV4;11-PGP cell line; 120 h, MV4;11-PGP, valspodar (1 μM), 5 days, Table 4, read-out: IC50 (Compound I + Valspodar)) was 4.7 nM. The IC50 (MV4;11-PGP cell line; 144 h, second set of experiments, 0 to 1000 nM, Table 5, read-out: IC50 MV4;11-PGP (Compound + DMSO)) was 19.1 nM, the IC50 (MV4;11-PGP cell line; 144 h, second set of experiments, 0 to 1000 nM, Table 6, read-out: IC50 MV4;11-PGP (Compound + DMSO)) was 19.9 nM and the IC50 (MV4;11-PGP cell line; second set of experiments, posaconazole (1.5 (unit uncertain)), Table 5, read-out: IC50 MV4;11-PGP (Compound + posaconazole)) was 5.79 nM. For the same compound, the IC50 (MV4;11-PGP cell line; second set of experiments, valspodar (1 (unit uncertain)), Table 6, read-out: IC50 MV4;11-PGP (Compound + valspodar)) was 5.64 nM, the IC50 (MOLM13-Control cell line; Table 7, read-out: IC50 MOLM13-Control (Compound + DMSO)) was 23.7 nM and the IC50 (MOLM13-Control cell line; Table 8, read-out: IC50 MOLM13-Control (compound + DMSO)) was 27 nM. For the same compound, the IC50 (MOLM13-Control cell line; posaconazole (1.5 (unit uncertain)), Table 7, read-out: IC50 MOLM13-Control (Compound + posaconazole)) was 16.5 nM, the IC50 (MOLM13-Control cell line; valspodar (1 (unit uncertain)), Table 8, read-out: IC50 MOLM13-Control (Compound + valspodar)) was 22.3 nM and the IC50 (MOLM13-PGP cell line; Table 7, read-out: IC50 MOLM13-PGP (Compound + DMSO)) was 65.7 nM. It also gave an IC50 (MOLM13-PGP cell line; Table 8, read-out: IC50 MOLM13-PGP (Compound + DMSO)) of 63.2 nM, an IC50 (MOLM13-PGP cell line; posaconazole (1.5 (unit uncertain)), Table 7, read-out: IC50 MOLM13-PGP (Compound + posaconazole)) of 19.2 nM and an IC50 (MOLM13-PGP cell line; valspodar (1 (unit uncertain)), Table 8, read-out: IC50 MOLM13-PGP (Compound + valspodar)) of 23 nM. It also gave an IC50 ([2]; Table 9, read-out: IC50 OCI-AML3-Control (Compound + DMSO)) of 16.4 nM, an IC50 ([2]; Table 10, read-out: IC50 OCI-AML3-Control (Compound + DMSO)) of 15.3 nM and an IC50 ([2]; posaconazole (0.75 (unit uncertain)), Table 9, read-out: IC50 OCI-AML3-Control (Compound + posaconazole)) of 17.7 nM. It also gave an IC50 ([2]; valspodar (1 (unit uncertain)), Table 10, read-out: IC50 OCI-AML3-Control (Compound + valspodar)) of 19.2 nM, an IC50 (OCI-AML3-PGP cell line; Table 9, read-out: IC50 OCI-AML3-PGP (Compound + DMSO)) of 38.9 nM and an IC50 (OCI-AML3-PGP cell line; Table 10, read-out: IC50 OCI-AML3-PGP (Compound + DMSO)) of 50.2 nM. It also gave an IC50 (OCI-AML3-PGP cell line; posaconazole (0.75 (unit uncertain)), Table 9, read-out: IC50 OCI-AML3-PGP (Compound + posaconazole)) of 19.2 nM and an IC50 (OCI-AML3-PGP cell line; valspodar (1 (unit uncertain)), Table 10, read-out: IC50 OCI-AML3-PGP (Compound + valspodar)) of 15.7 nM.
